Laboratory results reported in ChEMBL document CHEMBL5604062, “ASAP - ZIKV NS2B-NS3 protease fluorescence dose response” (2024).
Several values for one entry are separate records, joined by “and”; a condition that tells them apart may be missing. Equal values may be shown once.

Target: Nonstructural protein 3 (Zika virus, UniProt A0A024AXB9)
Experiment: Functional biochemical assay to identify treatments for viral infectious disease that targets Zika NS2B-NS3 protease. Utilizing a direct enzyme activity measurement method, reading the fluorescence intensity is used to characterize the relative potency of inhibitors as IC50.
Parameters: species or system PRVABC59

Nonstructural protein 3, sequence (A0A024AXB9 whole entry): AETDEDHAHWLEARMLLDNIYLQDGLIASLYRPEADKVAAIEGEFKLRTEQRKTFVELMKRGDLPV

| SMILES | IC50 |
| --- | --- |
| O=C(O)c1cc(Cl)ccc1S(=O)(=O)Nc1ccc(N2CCCCC2)c(F)c1 | > 99.5 µM |
| Cc1c(C(=O)Nc2cc(-c3cccnc3)ccn2)cc(C2CCCC2)n1C | > 25 µM |
| C=C1C[C@H](c2cc(Cl)cc(NC(=O)OCc3ccccc3)c2)[C@@H](c2cccc(-c3nn[nH]n3)c2)C1 | 18.9 µM |
| O=C(Nc1ccc2c(c1)CNC2)c1cccc2[nH]ncc12 | 0.129 µM |
| c1cncc(C2CC(NCc3n[nH]c4ccccc34)C2)c1 (stereo not drawn) | > 99.5 µM |
| CCCN(C)C(=O)c1cc(Cl)ccc1NS(=O)(=O)c1ccc(Oc2ccccc2Cl)cc1 | > 99.5 µM |
| NCc1cccc(NC(=O)[C@H](NC(=O)OCc2ccccc2)c2cccc(OCCn3cccn3)c2)c1 | > 99.5 µM |
| Clc1cc([C@@H]2C[C@H]2c2cccc(-c3nn[nH]n3)c2)c2cn[nH]c2c1 | > 99.5 µM |
| NCc1cc(F)cc(NC(=O)c2cc(Cl)cc(NC(=O)OCc3ccccc3)c2)c1 | 5.86 µM |
| O=C(Nc1ccc2c(c1)CNC2)c1cccc2nc(O)ccc12 | 0.204 µM |
| CCn1c(=O)c(N2CC[C@@H](CN3CCCCC3)C2)nc2ccccc21 | > 99.5 µM |
| NCc1cccc(NC(=O)[C@@H](NC(=O)OCc2ccccc2)c2ccc(-c3ccncc3F)cc2)c1 | 38.9 µM |
| Cc1ccc(-n2nc(C(=O)Nc3cccc(CN)c3)ccc2=O)cc1Cl | > 99.5 µM |
| Cn1nc(C(=O)Nc2cc(-c3cccnc3)ccn2)cc1C1CC1 | > 25 µM |
| O=C(O)c1cc(Cl)ccc1S(=O)(=O)NC1CCN(S(=O)(=O)Cc2ccccc2)CC1 | > 99.5 µM |
| Cn1cc(NS(=O)(=O)c2ccc(Oc3ccccc3Cl)cc2)c(C(=O)O)n1 | > 99.5 µM |
| O=C(O)c1cc(Cl)ccc1NS(=O)(=O)c1ccc(-c2ccccc2F)cc1 | 29.2 µM |
| O=C(Nc1cc(Cl)cc(-c2cnn(Cc3ccc(C(=O)O)cc3)c2)c1)OCc1ccccc1 | 39.4 µM |
| Cc1cnc(Oc2ccc(S(=O)(=O)Nc3ccc(Cl)cc3C(=O)O)cc2)cn1 | > 99.5 µM |
| COCc1cc(Cl)cc(S(=O)(=O)Nc2cccc(-c3nnn[nH]3)c2)c1 | > 99.5 µM |
| O=C(Nc1cc(Cl)cc(C(=O)Nc2cccc(CN3CCCC3=O)c2)c1)OCc1ccccc1 | > 99.5 µM |
| O=C(N[C@@H](C(=O)NCc1cnccn1)c1ccc(OCc2ccccc2)cc1)OCc1ccccc1 | > 99.5 µM |
| COc1ccc(COc2ccc([C@H](NC(=O)OCc3ccccc3)C(=O)Nc3cccc(CN)c3)cc2)cn1 | 38.8 µM |
| CC(=O)NCc1cccc(NC(=O)c2cc(Cl)cc(NC(=O)OCc3ccccc3)c2)c1 | > 99.5 µM |
| c1ccc2c(CN3CCCc4cnccc4C3)n[nH]c2c1 | > 99.5 µM |
| Cc1nc(C2CC2)[nH]c1C(=O)Nc1cc(-c2cccnc2)ccn1 | > 25 µM |

| SMILES | IC50 |
| --- | --- |
| O=C(Nc1cc(-c2cccnc2)ccn1)c1cc(C2CC2)on1 | > 25 µM |
| CC[C@H](CO)NC(=O)Cn1ccnc(N2CC[C@H](CO)C2)c1=O | > 99.5 µM |
| O=C1Cc2c(cccc2C(=O)Nc2cc([C@H]3CCOC3)ccn2)N1 | > 25 µM |
| O=S(=O)(Nc1cccc(-c2nnn[nH]2)c1)c1cc(Cl)cc2c1OCC2 | > 99.5 µM |
| O=C(Nc1ccc2c(c1)CNC2)c1cc(F)cc(-c2cn[nH]c2)c1 | 0.034 µM and 0.023 µM |
| O=C(Nc1ccc2c(c1)CNC2)c1cncc(N2CCOCC2)c1 | 66.3 µM |
| CC(=O)N1CCC[C@H]1C(=O)N[C@@H](C(=O)Nc1cccc(CN)c1)c1ccc(OCc2ccccc2)cc1 | > 99.5 µM |
| O=C(Nc1ccc2c(c1)CNC2)c1ccc2c(c1)C1(CC1)C(=O)N2 | 1.77 µM |
| NCc1cccc(NC(=O)c2cc(Cl)cc(OC3CC3)c2)c1 | 20.6 µM |
| Cc1ccc(NC(=O)c2cc(Cl)ccc2Cl)c(C(=O)Nc2cccc(CN)c2)c1 | 53.9 µM |
| Cc1cc(NS(=O)(=O)c2ccc(Oc3ccccc3Cl)cc2)c(C(=O)NCC(F)(F)F)cc1F | 72.3 µM |
| O=C(O)c1cc(F)c(F)c(F)c1NS(=O)(=O)c1ccc(Oc2ccccc2Cl)cc1 | 88.8 µM |
| O=C1CCN(c2cc(Cl)cc(C(=O)Nc3ccc4c(c3)CNC4)c2)C(=O)N1 | 1.23 µM |
| O[C@H]1CCCN(Cc2c[nH]c3ccccc23)C1 | > 99.5 µM |
| O=C(O)c1ccc(Cc2c[nH]c3ccc(Cl)cc23)cc1 | > 99.5 µM |
| C[C@@H]1C[C@@H](C(=O)Nc2cccc(CN)c2)CCO1 | > 99.5 µM |
| CCn1ccnc(N2CC(=O)[C@@H](c3c[nH]c4ccccc34)C2)c1=O | > 99.5 µM |
| NCc1cccc(NC(=O)c2cc(F)cc(NC(=O)OCc3ccccc3)c2F)c1 | 74.4 µM |
| O=C(O)c1cc(Cl)ccc1NS(=O)(=O)c1ccc(Oc2ccccc2Cl)nc1 | > 99.5 µM |
| O=C1OCc2ccc(NC(=O)[C@H]3CCNC34CCCC4)cc21 | > 25 µM |
| NCc1cccc(NC(=O)[C@@H](NC(=O)OCc2ccccc2)c2ccc(OCc3cnccn3)cc2)c1 | > 99.5 µM |
| Nc1ccc(NC(=O)c2cc(Cl)cc3[nH]ncc23)cn1 | > 99.5 µM |
| c1ccc2c(CN3CCC[C@H](c4c[nH]c5ccccc45)C3)c[nH]c2c1 | > 99.5 µM |
| CC(C)(C)OC(=O)Cc1cc(CN)cc(NC(=O)c2cc(Cl)cc(NC(=O)OCc3ccccc3)c2)c1 | > 99.5 µM |
| CCOC(=O)c1[nH]c(C)c(C(=O)Nc2cccc(CN)c2)c1CC | > 99.5 µM |
| CCn1cc(-c2cncc(OC)c2)nc(N2CC[C@@H](CO)C2)c1=O | > 99.5 µM |

| SMILES | IC50 |
| --- | --- |
| NC1(c2cccc(NC(=O)c3cc(Cl)cc(NC(=O)OCc4ccccc4)c3)c2)CCC1 | > 99.5 µM |
| CN(C)C(=O)Nc1cccc([C@@H]2C[C@H]2c2cc(Cl)cc(NC(=O)OCc3ccccc3)c2)c1 | > 99.5 µM |
| c1cncc(-c2cccc(NCc3c[nH]c4ccccc34)c2)c1 | > 99.5 µM |
| O=C(Nc1ccc2c(c1)CNC2)c1cc(Cl)cc2c1cnn2C1CCOCC1 | 0.058 µM and 0.033 µM |
| COC1CN(C(=O)c2ccnc(NC(=O)c3cc(C4CC4)n(C)c3C)c2)C1 | > 25 µM |
| O=C(Nc1cc(Cl)cc([C@H](Nc2cccc(-c3nn[nH]n3)c2)C(=O)NC2CCOCC2)c1)OCc1ccccc1 | > 99.5 µM |
| O=C(Nc1cc(Cl)cc(C(=O)Nc2cccc(C(=O)O)c2)c1)OCc1ccccc1 | 84 µM |
| NCc1cc(S(=O)(=O)Nc2ccc(Cl)cc2C(=O)NCC(F)(F)F)ccc1Oc1ccccc1 | > 99.5 µM |
| CC1(N2CCC(NS(=O)(=O)c3ccc(Cl)cc3C(=O)O)CC2)CCCCC1 | > 99.5 µM |
| O=C(O)CCCn1cnc(-c2cc(Cl)cc(NC(=O)OCc3ccccc3)c2)n1 | > 99.5 µM |
| CN(C)Cc1cccc(-c2ccc(S(=O)(=O)Nc3ccc(Cl)cc3C(=O)O)cc2)c1 | > 99.5 µM |
| O=S(=O)(CCOc1ccccc1)c1nccs1 | > 99.5 µM |
| NCc1cccc(NC(=O)c2ccc(=O)n(Cc3ccccc3Cl)c2)c1 | > 99.5 µM |
| NCc1cccc(NC(=O)c2nn(-c3ccc(Cl)c(F)c3)c3c2CCC3)c1 | 36.9 µM |
| CCn1c(=O)c(N2CC[C@H](CO)C2)nc2cc(C(=O)N(C)C)ccc21 | > 99.5 µM |
| NCc1cccc(NC(=O)c2cc(CO)cc(NC(=O)OCc3ccccc3)c2)c1 | > 99.5 µM |
| O=C(N[C@@H](C(=O)Nc1ccncc1)c1ccc(OCc2ccccc2)cc1)OCc1ccccc1 | > 99.5 µM |
| Cn1cc(Nc2ccc(S(=O)(=O)Nc3ccc(Cl)cc3C(=O)O)cn2)cn1 | > 99.5 µM |
| C=C1C[C@H](c2cccc(CN)c2)[C@@H](c2cc(Cl)cc(NC(=O)OCc3ccccc3)c2)C1 | > 25 µM |
| NCc1cc(NC(=O)c2cc(Cl)cc(NC(=O)OCc3ccccc3)c2)cc(C2CC2)c1 | 6.67 µM |
| O=C(Cn1ccnc(N2CC[C@H](CO)C2)c1=O)N[C@H]1CCOC1 | > 99.5 µM |
| Cc1ccc(OCc2ccccc2Cl)c(C(=O)Nc2cccc(CN)c2)c1 | 43.2 µM |
| NCc1cccc(NC(=O)[C@@]23CCC[C@H](C2)N3C(=O)OCc2ccccc2)c1 | > 99.5 µM |
| CC(C)Oc1cc(COc2cccnc2F)nc(N2CCNCC2)n1 | > 99.5 µM |
| Cn1ncc(CN2CCC([C@H](NC(=O)OCc3ccccc3)C(=O)Nc3cccc(CN)c3)CC2)n1 | > 99.5 µM |
| O=C(Nc1ccc2c(c1)CNC2)c1cc(F)cc(/C=C/c2ccccc2)c1 | 0.165 µM |

| SMILES | IC50 |
| --- | --- |
| C[C@H]1C[C@H]1c1cc(C(=O)Nc2cc(-c3cccnc3)ccn2)no1 | > 25 µM |
| c1ccc2c(CNC3CCN(Cc4cscn4)CC3)c[nH]c2c1 | > 99.5 µM |
| CCn1ncc(-c2noc3nc(C)cc(C(=O)Nc4cccc(CN)c4)c23)c1C | > 99.5 µM |
| O=C(O)c1cc(Cl)ccc1S(=O)(=O)Nc1ccc(CCN2CCCC2)cc1 | > 99.5 µM |
| CN(C)[C@H](C(=O)Nc1cccc(CN)c1)c1cc(Cl)cc(Cl)c1 | > 99.5 µM |
| NC1(c2cccc(NC(=O)c3cc(Cl)cc(NC(=O)OCc4ccccc4)c3)c2)CCOCC1 | > 99.5 µM |
| Clc1cc(CNc2ccc3c(c2)CNC3)c2cn[nH]c2c1 | 3.28 µM |
| O=C(N[C@@H](C(=O)NC1CCCCC1)c1ccc(OCc2ccccc2)cc1)OCc1ccccc1 | > 99.5 µM |
| O=C(Nc1cc(Cl)cc(C(=O)Nc2ccc3c(c2)C(=O)OC3)c1)OCc1ccccc1 | > 99.5 µM |
| NCc1cc(Cl)cc(C(=O)Nc2ccc3c(c2)CNC3)c1 | 0.114 µM |
| CN1CCC(COc2ccc([C@@H](NC(=O)OCc3ccccc3)C(=O)Nc3cccc(CN)c3)cc2)CC1 | 82.3 µM |
| CC(=O)N(c1ccc2c(c1)CNC2)[C@H](C(=O)NCC(F)F)c1cc(Cl)cc(C2CC2)c1 | 1.93 µM |
| N#Cc1ccccc1-c1ccc(S(=O)(=O)Nc2ccc(Cl)cc2C(=O)O)cc1 | 80 µM |
| CCn1cc(-c2cc(F)ccc2C)nc(N2CC[C@@H](CO)C2)c1=O | > 99.5 µM |
| Cc1c(C(=O)Nc2cc(C(=O)N3CCn4nccc43)ccn2)cc(C2CC2)n1C | > 25 µM |
| NC(=O)C1CCN(Cc2c[nH]c3ccccc23)CC1 | > 99.5 µM |
| N#C[C@H](Nc1cc(Cl)cc(C2CC2)c1)c1ccc(-c2nn[nH]n2)cc1 | 75.8 µM |
| O=C(Nc1ccc2c(c1)CCNCC2)c1cc(Cl)cc2[nH]ncc12 | 0.37 µM |
| COc1ccc(F)cc1-c1ccc(S(=O)(=O)Nc2cc(Cl)cc(C(=O)O)c2)cc1 | > 99.5 µM |
| COCn1ncc2c(C(=O)Nc3ccc4c(c3)CNC4)cc(Cl)cc21 | 0.08 µM and 0.054 µM |
| O=C(Nc1cc(Cl)cc(C(=O)Nc2cccc(-n3nn[nH]c3=O)c2)c1)OCc1ccccc1 | 30.8 µM |
| NCc1cccc(N2CCN(C(=O)OCc3ccccc3)[C@H](c3ccc(OCc4ccccc4)cc3)C2=O)c1 | 21 µM |
| CC(C)(CO)NC(=O)[C@@H](NC(=O)OCc1ccccc1)c1ccc(OCc2ccccc2)cc1 | > 99.5 µM |
| O=C(NCC1CCCCC1)[C@H]1CCCN1C(=O)Nc1ccc2c(c1)CNC2 | > 25 µM |
| NCc1cccc(NC(=O)c2nc(C3CC3)n(-c3ccccc3Cl)n2)c1 | > 99.5 µM |
